Patent US8748415B2 (priority 2011, dated 2014)

system: recombinant NL4-3 virus (Renilla luciferase in nef, Gag P373S); test: HIV cell culture assay (luciferase activity in MT-2 cells infected with NLRluc recombinant virus); format: cell-based; conditions: NL43
Description: HIV cell culture assay—MT-2 cells and 293T cells were obtained from the NIH AIDS Research and Reference Reagent Program. MT-2 cells were propagated in RPMI 1640 media supplemented with 10% heat inactivated fetal bovine serum, […]. The 293T cells were propagated in DMEM media supplemented with 10% heat inactivated fetal bovine serum (FBS), 100 units/ml penicillin G and 100 μg/ml streptomycin. The proviral DNA clone of NL4-3 was obtained from the NIH AIDS Research and Reference Reagent Program. A recombinant NL4-3 virus, in which a section of the nef gene from NL4-3 was replaced with the Renilla luciferase gene, was used as a reference virus. In addition, residue Gag P373 was converted to P373S. Briefly, the recombinant virus was prepared by transfection of the altered proviral clone of NL4-3. Transfections were performed in 293T cells using LipofectAMINE PLUS from Invitrogen (Carlsbad, Calif.), according to manufacturer's instruction. The virus was titered in MT-2 cells using luciferase enzyme activity as a marker. Luciferase was quantitated using the Dual Luciferase kit from Promega (Madison, Wis.), with modifications to the manufacturer's protocol. The diluted Passive Lysis solution was pre-mixed with the re-suspended Luciferase Assay Reagent and the re-suspended Stop & Glo Substrate (2:1:1 ratio). Fifty (50) μL of the mixture was added to each aspirated well on assay plates and luciferase activity was measured immediately on a Wallac TriLux (Perkin-Elmer). Antiviral activities of inhibitors toward the recombinant virus were quantified by measuring luciferase activity in cells infected for 4-5 days with NLRluc recombinants in the presence serial dilutions of the inhibitor. Table 1 is the key for the data in Table 2.

SMILES	EC50 [µM]
C=C(C)[C@@H]1CC[C@]2(CN3CC3)CC[C@]3(C)[C@H](CC[C@@H]4[C@@]5(C)CC=C(c6ccc(C(=O)O)cc6)C(C)(C)[C@@H]5CC[C@]43C)[C@@H]12 [Example 177, 4-((1R,3aS,5aR,5bR,7aR,11aS,11bR,13aR,13bR)-3a-(aziridin-1-ylmethyl)-5a,5b,8,8,11a-pentamethyl-1-(prop-1-en-2-yl)-2,3,3a,4,5,5a,5b,6,7,7a,8,11,11a,11b,12,13,13a,13b-octadecahydro-1H-cyclopenta[a]chrysen-9-yl)benzoic acid]	< 0.1

same assay, conditions: NL43, MT-2 cells infected 4-5 days with NLRluc recombinant virus, class symbol

SMILES	EC50 [µM]
C=C(C)[C@@H]1CC[C@]2(CN(C)CCN3CCS(=O)(=O)CC3)CC[C@]3(C)[C@H](CC[C@@H]4[C@@]5(C)CC=C(c6ccc(C(=O)O)cc6)C(C)(C)[C@@H]5CC[C@]43C)[C@@H]12 [Example 33]	< 0.1
C=C(C)[C@@H]1CC[C@]2(CNCCN3CCN(C)CC3)CC[C@]3(C)[C@H](CC[C@@H]4[C@@]5(C)CC=C(c6ccc(C(=O)O)cc6)C(C)(C)[C@@H]5CC[C@]43C)[C@@H]12 [Example 11, 4-((1R,3aS,5aR,5bR,7aR,11aS,1bR,13aR,13bR)-5a,5b,8,8,11a-pentamethyl-3a-((2-(4-methylpiperazin-1-yl)ethylamino)methyl)-1-(prop-1-en-2-yl)-2,3,3a,4,5,5a,5b,6,7,7a,8,11,11a,11b,12,13,13a,13b-octadecahydro-1H-cyclopenta[a]chrysen-9-yl)benzoic acid]	< 0.1
C=C(C)[C@@H]1CC[C@]2(CNCC(=O)N3CCC(C(=O)OCC)CC3)CC[C@]3(C)[C@H](CC[C@@H]4[C@@]5(C)CC=C(c6ccc(C(=O)O)cc6)C(C)(C)[C@@H]5CC[C@]43C)[C@@H]12 [Example 111, 4-((1R,3aS,5aR,5bR,7aR,11aS,11bR,13aR,13bR)-3a-((2-(4-(ethoxycarbonyl)piperidin-1-yl)-2-oxoethylamino)methyl)-5a,5b,8,8,11a-pentamethyl-1-(prop-1-en-2-yl)-2,3,3a,4,5,5a,5b,6,7,7a,8,11,11a,11b,12,13,13a,13b-octadecahydro-1H-cyclopenta[a]chrysen-9-yl)benzoic acid]	< 0.1
C=C(C)[C@@H]1CC[C@]2(CNCC(O)CN3CCCC3=O)CC[C@]3(C)[C@H](CC[C@@H]4[C@@]5(C)CC=C(c6ccc(C(=O)O)cc6)C(C)(C)[C@@H]5CC[C@]43C)[C@@H]12 (stereo partly drawn) [Example 81, 4-((1R,3aS,5aR,5bR,7aR,11aS,11bR,13aR,13bR)-3a-((2-hydroxy-3-(2-oxopyrrolidin-1-yl)propylamino)methyl)-5a,5b,8,8,11a-pentamethyl-1-(prop-1-en-2-yl)-2,3,3a,4,5,5a,5b,6,7,7a,8,11,11a,11b,12,13,13a,13b-octadecahydro-1H-cyclopenta[a]chrysen-9-yl)benzoic acid]	< 0.1
C=C(C)[C@@H]1CC[C@]2(CNCCNCCO)CC[C@]3(C)[C@H](CC[C@@H]4[C@@]5(C)CC=C(c6ccc(C(=O)O)cc6)C(C)(C)[C@@H]5CC[C@]43C)[C@@H]12 [Example 62, 4-((1R,3aS,5aR,5bR,7aR,11aS,11bR,13aR,13bR)-3a-((2-(2-hydroxyethylamino)ethylamino)methyl)-5a,5b,8,8,11a-pentamethyl-1-(prop-1-en-2-yl)-2,3,3a,4,5,5a,5b,6,7,7a,8,11,11a,11b,12,13,13a,13b-octadecahydro-1H-cyclopenta[a]chrysen-9-yl)benzoic acid]	< 0.1
C=C(C)[C@@H]1CC[C@]2(CN[C@@H](CC(=O)OC)C(=O)OC)CC[C@]3(C)[C@H](CC[C@@H]4[C@@]5(C)CC=C(c6ccc(C(=O)O)cc6)C(C)(C)[C@@H]5CC[C@]43C)[C@@H]12 [Example 49, 4-((1R,3aS,5aR,5bR,7aR,11aS,11bR,13aR,13bR)-3a-(((S)-1,4-dimethoxy-1,4-dioxobutan-2-ylamino)methyl)-5a,5b,8,8,11a-pentamethyl-1-(prop-1-en-2-yl)-2,3,3a,4,5,5a,5b,6,7,7a,8,11,11a,11b,12,13,13a,13b-octadecahydro-1H-cyclopenta[a]chrysen-9-yl)benzoic acid]	< 0.1
C=C(C)[C@@H]1CC[C@]2(CN(C)CCCN3CCS(=O)(=O)CC3)CC[C@]3(C)[C@H](CC[C@@H]4[C@@]5(C)CC=C(c6ccc(C(=O)O)cc6)C(C)(C)[C@@H]5CC[C@]43C)[C@@H]12 [Example 15, 4-((1R,3aS,5aR,5bR,7aR,11aS,11bR,13aR,13bR)-5a,5b,8,8,11a-pentamethyl-1-(prop-1-en-2-yl)-3a-((3-(1-dioxo-thiomorpholino)propylamino)methyl)-2,3,3a,4,5,5a,5b,6,7,7a,8,11,11a,11b,12,13,13a,13b-octadecahydro-1H-cyclopenta[a]chrysen-9-yl)benzoic acid]	< 0.1
C=C(C)[C@@H]1CC[C@]2(CNC/C=C/CN3CCS(=O)(=O)CC3)CC[C@]3(C)[C@H](CC[C@@H]4[C@@]5(C)CC=C(c6ccc(C(=O)O)cc6)C(C)(C)[C@@H]5CC[C@]43C)[C@@H]12 [Example 73, 4-((1R,3aS,5aR,5bR,7aR,11aS,11bR,13aR,13bR)-3a-((((2E)-4-(1,1-dioxido-4-thiomorpholinyl)-2-buten-1-yl)amino)methyl)-1-isopropenyl-5a,5b,8,8,11a-pentamethyl-2,3,3a,4,5,5a,5b,6,7,7a,8,11,11a,11b,12,13,13a,13b-octadecahydro-1H-cyclopenta[a]chrysen-9-yl)benzoic acid]	< 0.1
C=C(C)[C@@H]1CC[C@]2(CNCCOC)CC[C@]3(C)[C@H](CC[C@@H]4[C@@]5(C)CC=C(c6ccc(C(=O)O)cc6)C(C)(C)[C@@H]5CC[C@]43C)[C@@H]12 [Example 180, 4-((1R,3aS,5aR,5bR,7aR,11aS,11bR,13aR,13bR)-3a-((2-methoxyethylamino)methyl)-5a,5b,8,8,11a-pentamethyl-1-(prop-1-en-2-yl)-2,3,3a,4,5,5a,5b,6,7,7a,8,11,11a,11b,12,13,13a,13b-octadecahydro-1H-cyclopenta[a]chrysen-9-yl)benzoic acid]	< 0.1
C=C(C)[C@@H]1CC[C@]2(CNCCCN3C(=O)CCC3=O)CC[C@]3(C)[C@H](CC[C@@H]4[C@@]5(C)CC=C(c6ccc(C(=O)O)cc6)C(C)(C)[C@@H]5CC[C@]43C)[C@@H]12 [Example 71, 4-((1R,3aS,5aR,5bR,7aR,11aS,11bR,13aR,13bR)-3a-((3-(2,5-dioxopyrrolidin-1-yl)propylamino)methyl)-5a,5b,8,8,11a-pentamethyl-1-(prop-1-en-2-yl)-2,3,3a,4,5,5a,5b,6,7,7a,8,11,11a,11b,12,13,13a,13b-octadecahydro-1H-cyclopenta[a]chrysen-9-yl)benzoic acid]	< 0.1
C=C(C)[C@@H]1CC[C@]2(CNCCCn3ccnc3C)CC[C@]3(C)[C@H](CC[C@@H]4[C@@]5(C)CC=C(c6ccc(C(=O)O)cc6)C(C)(C)[C@@H]5CC[C@]43C)[C@@H]12 [Example 22]	< 0.1
C=C(C)[C@@H]1CC[C@]2(CNCCC(=O)N3CCC(=O)CC3)CC[C@]3(C)[C@H](CC[C@@H]4[C@@]5(C)CC=C(c6ccc(C(=O)O)cc6)C(C)(C)[C@@H]5CC[C@]43C)[C@@H]12 [Example 128, 4-((1R,3aS,5aR,5bR,7aR,11aS,11bR,13aR,13bR)-5a,5b,8,8,11a-pentamethyl-3a-((3-oxo-3-(4-oxopiperidin-1-yl)propylamino)methyl)-1-(prop-1-en-2-yl)-2,3,3a,4,5,5a,5b,6,7,7a,8,11,11a,11b,12,13,13a,13b-octadecahydro-1H-cyclopenta[a]chrysen-9-yl)benzoic acid]	< 0.1

same assay, conditions: NL43, MT-2 cells infected 4-5 days with NLRluc recombinant virus, numeric value

SMILES	EC50 [µM]
C=C(C)[C@@H]1CC[C@]2(CNCCCC(=O)O)CC[C@]3(C)[C@H](CC[C@@H]4[C@@]5(C)CC=C(c6ccc(C(=O)O)cc6)C(C)(C)[C@@H]5CC[C@]43C)[C@@H]12 [Example 28, 4-((1R,3aS,5aR,5bR,7aR,11aS,11bR,13aR,13bR)-3a-((3-carboxypropylamino)methyl)-5a,5b,8,8,11a-pentamethyl-1-(prop-1-en-2-yl)-2,3,3a,4,5,5a,5b,6,7,7a,8,11,11a,11b,12,13,13a,13b-octadecahydro-1H-cyclopenta[a]chrysen-9-yl)benzoic acid]	0.002
C=C(C)[C@@H]1CC[C@]2(CNCCC(=O)OC)CC[C@]3(C)[C@H](CC[C@@H]4[C@@]5(C)CC=C(c6ccc(C(=O)O)cc6)C(C)(C)[C@@H]5CC[C@]43C)[C@@H]12 [Example 176, 4-((1R,3aS,5aR,5bR,7aR,11aS,11bR,13aR,13bR)-3a-((3-methoxy-3-oxopropylamino)methyl)-5a,5b,8,8,11a-pentamethyl-1-(prop-1-en-2-yl)-2,3,3a,4,5,5a,5b,6,7,7a,8,11,11a,11b,12,13,13a,13b-octadecahydro-1H-cyclopenta[a]chrysen-9-yl)benzoic acid]	0.014
C=C(C)[C@@H]1CC[C@]2(CN3CCCC3=O)CC[C@]3(C)[C@H](CC[C@@H]4[C@@]5(C)CC=C(c6ccc(C(=O)O)cc6)C(C)(C)[C@@H]5CC[C@]43C)[C@@H]12 [Example 29]	1
